Literature values as cited in US11071785B2, “Liquid formulation of long-lasting protein conjugate comprising the oxyntomodulin and an immunoglobulin Fc region” (HANMI PHARM, CO., LTD, priority 2012, dated 2021).

Legend:
[1] = when administered for 1 year
[2] = in vivo

Row | Compound | weight reduction effect [1] | side effects reported [2]
1 | CCCCCCCCCCC[C@@H](C[C@@H]1OC(=O)[C@H]1CCCCCC)OC(=O)[C@H](CC(C)C)NC=O [Orlistat] | about 4 kg | 
2 | Cc1c(C(=O)NN2CCCCC2)nn(-c2ccc(Cl)cc2Cl)c1-c1ccc(Cl)cc1 [Rimonabant] |  | disorders of the central nervous system
3 | CC(C)CC(N(C)C)C1(c2ccc(Cl)cc2)CCC1 (stereo not shown) [Sibutramine] |  | cardiovascular side effects
4 | Contrave |  | cardiovascular side effects
